Patent US4221794A, “Method of imparting immunomodulating and antiviral activity” (Newport Pharmaceuticals International, Inc., priority 1979, dated 1980)
Structures can show the parent of a compound that is named as a salt.

How the values were obtained:
influenza virus [1] = experiment: microbe, parasite or virus in culture; type: cell-based, influenza virus Type A/USSR 90 (HeLa cell cultures)
[2] = system: (Russian) influenza virus; experiment: Inhibition of influenza virus replication, Russian; type: cell-based
mouse lymphocytes = experiment: Mitogen (Con A) induced mouse lymphocyte (spleen cell) proliferation; type: cell-based; settings: for Maximum Percent Change, Mitogen Induced (Con A) Mouse Lymph. Prolif.: plus = immunostimulating, minus = immunoinhibiting, 0 = neither
Text: (§1) The following three assay procedures are used to evaluate the ability of the test substances to modulate the activity of several classes of cells in the immune system. In these systems it is possible to identify both immunopotentiating activity (evidence by an enhancement of the parameter examined) as well as immunosuppressant activity (evidenced by an inhibition of the parameter examined).
1. Mitogen-Induced Mouse Spleen Cell Assay
Mouse spleen cells contain a population of both B and T lymphocytes which can be stimulated by a number of foreign substances (e.g., plant mitogens such as Con A) to proliferate. This enhanced proliferation is an indication of enhanced cell mediated immunity. The method below describes the system used to evaluate test substances as immunopotentiators.
Concanavalin A (Calbiochem, La Jolla, California), Lot #210073, lyophilized in NaCl, was prepared first as a 1% solution and diluted as a 2×concentration for each dilution (0.5, 1.0, 2.5 μg/ml).
Six to eight week old male Balb/c and C3 H inbred mice were obtained from the following sources: Flow Research Animals, Inc., Dublin, Virginia; Charles River Breeding Laboratories, Wilmington, Massachusetts; Laboratory Supply Company, Indianapolis, Indiana; and Lionel Strong Foundation, San Diego, California.
Three to five mice were sacrificed by cervical dislocation and the spleens aseptically removed. Pooled spleens were minced and teased with sterile forceps; then strained through a double layer of nylon mesh. The cell suspension was washed once with 15 ml of RPMI 1640 supplemented with 5% fetal calf serum and antibiotics. Cells were cultured at a concentration of 10^6 cells/0.1 ml/well in micro-plates. Cultures were incubated in the presence or absence of mitogen in a humidified atmosphere containing 5% CO2 for 48 hours. The test compound was added to cultures at various concentrations concommitant with mitogen.
Proliferation was assayed by the degree of incorporation of 1.0 μCi of [^3 H] thymidine over an 18 hour incubation period. Cultures were harvested by a MASH unit (Otto Hiller Co., Madison, Wisconsin) and thymidine incorporation was assayed by liquid scintillation spectrometry. Cultures were performed in triplicate and data are expressed as means plus or minus the standard error of the experimental means. Drug stimulation indices over control values were also calculated and portrayed graphically.
(§2) Table 4 above presents the results of an evaluation of a number of these subject compounds as potentiators of the immune response. Three different test systems were used. The first involves a measure of the ability of the test compound to enhance the ability of mouse lymphocytes to proliferate in response to a plant mitogen (Con A). The second involves measuring the ability of the test compounds to enhance human lymphocyte proliferation in response to a second plant mitogen (PHA). The third system measures the ability of these test substances to enhance macrophage proliferation in response to a natural lymphokine (MMF, Macrophage Mitogenic Factor).

[3] = system: human peripheral blood lymphocytes; experiment: Mitogen (PHA) induced human lymphocyte proliferation; type: cell-based; settings: plus = immunostimulating, minus = immunoinhibiting, 0 = neither
influenza virus [4] = experiment: Anti-influenza activity (overall); type: cell-based, several strains of A and B sub-types
[5] = system: Influenza A Swine 1976 (Hlsw -N1); type: cell-based; settings: listed as 15418
guinea pig macrophages = experiment: Lymphokine (MMF) induced guinea pig macrophage proliferation; type: cell-based; settings: plus = immunostimulating, minus = immunoinhibiting, 0 = neither
Experimental: 3. The macrophage represents a subpopulation of white blood cells which is an important component of the immune system in control of both cellular and humoral immunity. The assay system described below evaluates the substances studied as potentiators of macrophage function.
Phytohemagglutinin (PHA) (HA-17) was purchased from Burroughs Wellcome. A preparation containing Macrophage Mitogen Factor (MMF) and Macrophage Activating Factor (MAF) was prepared from antigen-stimulated immune lymph node lymphocytes (guinea pig) as previously described by Hadden et al, Nature 257, 483-485 (1975). […] The active fraction was employed in both the proliferation and activation assays.
Ficoll-hypaque purified human peripheral blood lymphocytes were prepared and PHA-induced lymphocyte proliferation was assayed by the incorporation of tritiated thymidine as described in Hadden et al., Cell. Immunol. 20, 98-103 (1975). Each compound was analyzed in the presence of suboptimal, optimal and supraoptimal concentrations of PHA (0.001, 0.01, 0.1 units/ml respectively). Paraffin oil-induced guinea pig peritoneal macrophages were prepared and incubated as monolayer culture (>98% pure macrophages). Lymphokine (MMF)-induced proliferation was assayed by the incorporation of tritiated thymidine at 3 and 5 days of culture as described, Hadden et al, Nature 257, 483-485 (1975). Lymphokine (MAF)-induced macrophage activation to kill Listeria monocytogenes following 5 days of culture in the presence or absence of MAF was performed during a 6 hour period as described in Hadden and England, Immunopharmacology, pages 87-100 (Plenum Press, 1977). Phagocytosis was quantitated during a 20-minute exposure to Listeria monocytogenes by counting the number of macrophages containing bacteria and the number of bacteria per phagocytic cell on gram stained monolayers in Labtek chambers. Intracellular killing of bacteria was evaluated by counting the number of cells containing bacteria and the number of bacteria/cell 6 hours after the initial 20 minute exposure. Parallel experiments in which macrophages were lysed and intracellular bacteria were cultured confirm the validity of bacterial activity determined by this manner in this system. The drugs were employed in each of the three systems over serial log concentration range in triplicate in the presence and absence of mitogen or lymphokine. Each type of experiment was performed at least three times. Previous experiments indicate a parallelism of response to pharmacologic modulation in the proliferation and achivation assays.
as §2

L-1210 leukemic cells = experiment: Anti-leukemic activity, inhibition of L-1210 growth; type: cell-based, mouse; settings: 96 hours
Experimental: Anti-Leukemic Activity (Inhibition of L-1210 Growth)
Leukemic cells isolated from mice bearing the L-1210 tumor are cultured in vitro and their growth can be measured by counting the number of cells in the culture over a period of time. The incorporation of a test substance into the media will prevent the growth of the leukemic cells, an indication of an effective anti-leukemic agent.
I50 (concentration of drug inhibiting growth of L-1210) by % for the tested compounds was as follows:
To Measure Inhibition of Leukemic Cell (L-1210) Growth
Check to see that there is adequate cell growth in the stock cultures. Use cells 48-72 hours after transfers are done.
Weigh out the drugs at 50 times the desired final concentration and made serial dilutions.
Make up the final medium using 500 mls McCoy's 5A medium, 15% fetal calf serum, 5 mls penicillin-streptomycin solution, and 5 mls antibiotic-antimycotic solution and let it stand at room temperature.
Using sterile technique, add 0.1 ml of the drug dilutions to each tube.
Add an appropriate quantity of cells to the prepared medium. After mixing, remove a 0.5 ml sample, place it in a vial containing […] of saline, and count it on the Coulter Counter. Multiply the count by 40 to compensate for the 40 fold dilution (0.5 ml into […] and record the inoculum.
Add 5 mls of cell suspension to each tube. Swirl the bottle every 4 tubes to insure a more uniform distribution of cells.
Tighten the caps and place in the CO2 incubator at 36°-38° for 96 hours.
After 96 hours remove the tubes from the incubator and count the contents of each on the Coulter Counter. Multiply all counts by 40 and average the four counts for each drug dilution. If the count is less than the inoculum, record 100% inhibition. If the count is greater than the average of the eight control counts, record 0% inhibition. For all other counts use the following formula: [formula] 100%-% servival=inhibition of growth due to treatment.

immune response = experiment: Immunomodulating activity (overall); type: cell-based
Text: as §1, §2

[6] = 1.0-10 (unit not printed), listed as 15418

CCCCCC[C@H]([C@H](C)O)n1cnc2c(N)ncnc21 (relative stereo) [NPT 15426, ERYTHRO-9-(2-HYDROXY-3-NONYL)-ADENINE. HCl]
inhibition at 10 µg/mL (influenza virus [1]; unidentified influenza virus, read-out: % Inhibition of Hemadsorption Foci, Test Compound Conc. <10 μg/ml): 50%
inhibition at 100 µg/mL (influenza virus [1]; unidentified influenza virus, read-out: % Inhibition of Hemadsorption Foci, Test Compound Conc. >100 μg/ml): 100%
% Inhibition ([2]; 0.1-1.0 μg/ml): 20-30%
% Inhibition ([2]; 1.0-10 μg/ml): 30-50%
% Inhibition ([2]; 10-100 μg/ml): 50-70%
% Inhibition ([2]; >100 μg/ml): 50-70%
% Stimulation, Mitogen Induced Murine Lymphocyte Proliferation (mouse lymphocytes; 01-1.0 μg/ml): 0%
% Stimulation, Mitogen Induced Murine Lymphocyte Proliferation (mouse lymphocytes; 1.0-10 μg/ml): 0%
Maximum Percent Change, Mitogen Induced (Con A) Mouse Lymph. Prolif. (mouse lymphocytes; 1.0-10 (unit not given)): -85%
% Stimulation, Mitogen Induced Murine Lymphocyte Proliferation (mouse lymphocytes; 10-100 μg/ml): 0%
Maximum Percent Change, Mitogen Induced (Con A) Mouse Lymph. Prolif. (mouse lymphocytes; 10-100 (unit not given)): -91%
Maximum Percent Change, Mitogen Induced (Con A) Mouse Lymph. Prolif. (mouse lymphocytes; .01-1.0 (unit not given)): -50%
Maximum Percent Change, Mitogen Induced (PHA) Human Lymph. Prolif. ([3]; 1.0-10 (unit not given)): -41%
Maximum Percent Change, Mitogen Induced (PHA) Human Lymph. Prolif. ([3]; .01-1.0 (unit not given)): 6%
anti-influenza activity (in words) (influenza virus [4]; compound by itself): significant anti-influenza activity

CCCCCCC(CO)n1cnc2c(=O)[nH]cnc21 (stereo not shown) [NPT 15418]
% Inhibition of Hemadsorption Foci (influenza virus [1]; Test Compound Conc. <10 μg/ml): 16%
% Inhibition of Hemadsorption Foci (influenza virus [1]; Test Compound Conc. >100 μg/ml): 52%
% Inhibition [5]: > 70%
% Stimulation, Mitogen Induced Murine Lymphocyte Proliferation (mouse lymphocytes; 01-1.0 μg/ml, listed as 15418): 20-30%
% Stimulation, Mitogen Induced Murine Lymphocyte Proliferation (mouse lymphocytes; 1.0-10 μg/ml, listed as 15418): > 50%
Maximum Percent Change, Mitogen Induced (Con A) Mouse Lymph. Prolif. (mouse lymphocytes; [6]): 73%
% Stimulation, Mitogen Induced Murine Lymphocyte Proliferation (mouse lymphocytes; 10-100 μg/ml, listed as 15418): 20-30%
Maximum Percent Change, Mitogen Induced (Con A) Mouse Lymph. Prolif. (mouse lymphocytes; 10-100 (unit not printed), listed as 15418): 26%
Maximum Percent Change, Mitogen Induced (Con A) Mouse Lymph. Prolif. (mouse lymphocytes; .01-1.0 (unit not printed), listed as 15418): 41%
Maximum Percent Change, Lymphokine Induced (MMF) Guinea Pig Mac. Prolif. (guinea pig macrophages; [6]): 80%
Maximum Percent Change, Lymphokine Induced (MMF) Guinea Pig Mac. Prolif. (guinea pig macrophages; .01-1.0 (unit not given)): 12%
I50 (concentration of drug inhibiting growth of L-1210) (L-1210 leukemic cells): 70 micrograms/ml
potentiation of the immune response (in words) (immune response): potentiation of the immune response has been observed
Potentiation of immunopotentiation by DIP.PAcBA salt (immune response; salt compared with parent compound): Yes
potentiation of anti-influenza activity by DIP.PAcBA salt (influenza virus [4]): does potentiate the anti-influenza activity and Yes
inhibit the replication of different strains of influenza virus (number of strains) (influenza virus [4]; concentrations ranging from 1-150 μg/ml): at least 4 different strains
